# Legend:
# [1] = Stability test in human plasma (LC-MS/MS); assay type: in vitro ADME; conditions: human, human plasma, 1 µM, 37 °C
# Summary of the method: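 Analyte at 1 µM in human plasma or PBS; after incubation, internal standard added, centrifuged, supernatant dried and redissolved in formic acid/acetonitrile 80:20. LC-MS/MS in MRM mode; first-order degradation rate k taken as slope of ln concentration versus incubation time.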
# [2] = target: T1, P-gp (Homo sapiens, UniProt P08183); assay: ATP cell depletion (ATPlite assay) in MDCK-MDR1 cells; assay type: cell-based; conditions: Yes/No
# T1 construct: expressed in transfected cells; host or cells: MDCK-MDR1 (Madin-Darby Canine Kidney cells, gift of Prof. P. Borst, NKI-AVL)
# Summary of the method: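 MDCK-MDR1 cells seeded at 20,000 per well and grown overnight were treated 2 h at 37 °C, 5% CO2 with compounds at 1 to 100 µM. After cell lysis and substrate addition, luminescence was measured following ten minutes of dark adaptation as the readout of cellular ATP.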
# [3] = Apparent permeability (Papp) determination (BA/AB) in Caco-2 cell monolayer; assay type: in vitro ADME; conditions: human, Caco-2 monolayer
# Summary of the method: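 Caco-2 monolayers cultured 21 days (TEER monitored, >1000 Ω optimal); compounds added at 100 µM in HBSS to the filter well, 120 min at 37 °C, then apical and basolateral sides sampled. Papp ratio BA/AB computed; ratio >2 taken as indicating P-gp substrate.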
# [4] = target: T1, P-gp; assay: Inhibition of Calcein-AM transport in MDCK-MDR1 cells; assay type: cell-based; conditions: for EC50: Calcein-AM, MDCK-MDR1 cells, mean ± SEM of two experiments; for inhibition at 30 min, 10 µM: human, MDCK-MDR1 cells (overexpressing P-gp), probe Calcein-AM (2.5 µM), at 10 µM, read-out: P-gp maximum inhibition
# Summary of the method: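 Confluent MDCK-MDR1 monolayers preincubated 30 min at 37 °C with compound (1 nM-100 µM), then 2.5 µM Calcein-AM (final) 30 min. After ice-cold PBS washes, fluorescence read (ex 485/em 535 nm); EC50 from % fluorescence increase over untreated basal versus log dose.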
# T1 sequence (P08183 whole entry): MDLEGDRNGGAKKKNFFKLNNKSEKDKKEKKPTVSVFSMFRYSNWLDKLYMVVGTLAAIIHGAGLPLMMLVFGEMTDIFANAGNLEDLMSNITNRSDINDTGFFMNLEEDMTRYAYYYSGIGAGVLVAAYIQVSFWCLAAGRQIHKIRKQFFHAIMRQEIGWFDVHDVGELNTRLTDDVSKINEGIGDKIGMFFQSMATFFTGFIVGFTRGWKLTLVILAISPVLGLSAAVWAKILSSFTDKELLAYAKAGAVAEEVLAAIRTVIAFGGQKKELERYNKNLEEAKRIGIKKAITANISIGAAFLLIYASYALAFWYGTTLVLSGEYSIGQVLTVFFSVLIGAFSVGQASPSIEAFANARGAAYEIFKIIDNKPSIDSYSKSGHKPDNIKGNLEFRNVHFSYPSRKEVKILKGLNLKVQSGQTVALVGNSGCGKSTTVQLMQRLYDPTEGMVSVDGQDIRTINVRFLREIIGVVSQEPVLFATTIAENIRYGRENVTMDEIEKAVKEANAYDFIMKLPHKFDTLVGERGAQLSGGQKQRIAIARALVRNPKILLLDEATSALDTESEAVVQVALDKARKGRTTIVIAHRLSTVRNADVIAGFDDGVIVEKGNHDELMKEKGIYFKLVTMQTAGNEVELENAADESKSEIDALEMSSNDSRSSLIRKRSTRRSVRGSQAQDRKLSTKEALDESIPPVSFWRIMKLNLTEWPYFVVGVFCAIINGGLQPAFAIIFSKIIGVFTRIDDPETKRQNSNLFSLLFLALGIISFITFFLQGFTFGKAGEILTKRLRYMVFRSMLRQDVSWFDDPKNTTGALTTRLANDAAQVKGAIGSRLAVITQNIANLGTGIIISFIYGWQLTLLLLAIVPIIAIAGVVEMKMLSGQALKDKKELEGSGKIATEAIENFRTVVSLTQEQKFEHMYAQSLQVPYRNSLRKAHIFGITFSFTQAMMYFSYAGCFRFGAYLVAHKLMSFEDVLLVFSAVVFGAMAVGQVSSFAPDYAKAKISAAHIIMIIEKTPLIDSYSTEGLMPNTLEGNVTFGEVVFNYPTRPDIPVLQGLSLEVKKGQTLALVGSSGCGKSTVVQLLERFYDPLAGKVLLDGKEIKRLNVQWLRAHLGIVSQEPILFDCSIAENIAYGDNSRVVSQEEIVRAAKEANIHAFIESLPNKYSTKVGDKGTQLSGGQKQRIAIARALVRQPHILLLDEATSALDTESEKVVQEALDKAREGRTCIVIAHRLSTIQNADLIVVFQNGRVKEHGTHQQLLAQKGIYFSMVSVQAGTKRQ
SMILES,half-life at 1 µM [1],ATP cell depletion [2],"efflux ratio at 120 min, 100 µM [3]",EC50 [4],"inhibition at 30 min, 10 µM [4]"
"COc1cc2c(cc1OC)CN(CCc1ccc(NC(=O)c3c(OC)c(OC)cc4ccccc34)cc1)CC2 [Compound 8, N-(4–(2-(6,7-dimethoxy-3,4-dihydroisoquinolin-2(1H)-yl)ethyl)phenyl)-2,3-dimethoxy-1-naphthamide]",≥ 4 h,No,5.5,47.8 ± 9.3 nM,90 to 95%
"COc1cc2c(cc1OC)CN(CCc1ccc(OC(=O)c3ccc(OC)c(OC)c3OC)cc1)CC2 [Compound 14, 4–(2-(6,7-Dimethoxy-3,4-dihydroisoquinolin-2(1H)-yl)ethyl)phenyl 2,3,4-trimethoxybenzoate]",≥ 4 h,No,9,360 ± 69 nM,–
"COc1cc2c(cc1OC)CN(CCc1ccc(OC(=O)c3ccccc3OC)cc1)CC2 [Compound 15, 4–(2-(6,7-Dimethoxy-3,4-dihydroisoquinolin-2(1H)-yl)ethyl)phenyl 2-methoxybenzoate]",1.05 ± 0.233 h,No,5.4,730 ± 140 nM,–
"COc1cc2c(cc1OC)CN(CCc1ccc(NC(=O)c3ccc(OC)c(OC)c3OC)cc1)CC2 [Compound 1, N-(4–(2-(6,7-dimethoxy-3,4-dihydroisoquinolin-2(1H)-yl)ethyl)phenyl)-2,3,4-trimethoxybenzamide]",≥ 4 h,No,7,530 ± 100 nM,–
"COc1cc2c(cc1OC)CN(CCc1ccc(NC(=O)c3cccc(OC)c3OC)cc1)CC2 [Compound 5, N-(4–(2-(6,7-dimethoxy-3,4-dihydroisoquinolin-2(1H)-yl)ethyl)phenyl)-2,3-dimethoxybenzamide]",≥ 4 h,No,5,260 ± 50 nM,–
"COc1cc2c(cc1OC)CN(CCc1ccc(OC(=O)c3cccc(OC)c3OC)cc1)CC2 [Compound 18, 4–(2-(6,7-Dimethoxy-3,4-dihydroisoquinolin-2(1H)-yl)ethyl)phenyl 2,3-dimethoxybenzoate]",0.9 ± 0.15 h,No,4.1,340 ± 70 nM,–
"COc1ccc(C(=O)Nc2ccc(CCN3CCc4cc(OC)c(OC)cc4C3)cc2)c(OC)c1 [Compound 3, N-(4–(2-(6,7-dimethoxy-3,4-dihydroisoquinolin-2(1H)-yl)ethyl)phenyl)-2,4-dimethoxybenzamide]",≥ 4 h,No,7.4,40.5 ± 8 nM,90 to 95%
"COc1ccc(C(=O)Oc2ccc(CCN3CCc4cc(OC)c(OC)cc4C3)cc2)c(OC)c1 [Compound 16, 4–(2-(6,7-Dimethoxy-3,4-dihydroisoquinolin-2(1H)-yl)ethyl)phenyl 2,4-dimethoxybenzoate]",1.47 ± 0.367 h,No,7.1,100 ± 20 nM,–

# Next, values leading:
half-life at 1 µM [1],ATP cell depletion [2],"efflux ratio at 120 min, 100 µM [3]",EC50 [4],"inhibition at 30 min, 10 µM [4]",SMILES
≥ 4 h,No,5.1,840 ± 160 nM,–,"COc1cc2c(cc1OC)CN(CCc1ccc(OC(=O)c3cccc4ccccc34)cc1)CC2 [Compound 19, 4–(2-(6,7-Dimethoxy-3,4-dihydroisoquinolin-2(1H)-yl)ethyl)phenyl 1-naphthoate]"
≥ 4 h,No,4.8,110 ± 20 nM,–,"COc1cc2c(cc1OC)CN(CCc1ccc(OC(=O)c3c(OC)ccc4ccccc34)cc1)CC2 [Compound 20, 4–(2-(6,7-Dimethoxy-3,4-dihydroisoquinolin-2(1H)-yl)ethyl)phenyl 2-methoxy-1-naphthoate]"
≥ 4 h,No,5.4,100 ± 20 nM,–,"COc1cc2c(cc1OC)CN(CCc1ccc(OC(=O)c3c(OC)c(OC)cc4ccccc34)cc1)CC2 [Compound 21, 4–(2-(6,7-Dimethoxy-3,4-dihydroisoquinolin-2(1H)-yl)ethyl)phenyl 2,3-dimethoxy-1-naphthoate]"
